Measured values taken from PubChem BioAssay (NCI).
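In this assay, cells in 96-well plates receive the compound at five concentrations for 48 hours. Endpoints are linearly interpolated between the surrounding concentrations. GI50 marks 50% less growth. TGI: concentration producing complete growth inhibition.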

Key:
Test in all cases: DTP human tumour cell line panel, 48 h
[1] = tested on: OVCAR-3 ovarian
[2] = tested on: DU-145 prostate
[3] = tested on: 786-0 renal
[4] = tested on: HOP-62 NSCLC
[5] = tested on: SK-MEL-2 melanoma
[6] = tested on: A549 NSCLC
[7] = tested on: TK-10 renal
[8] = tested on: HOP-92 NSCLC
[9] = tested on: U251 CNS
[10] = tested on: COLO 205 colon

Row | SMILES | GI50 [1] [µM] | TGI [1] [µM] | GI50 [2] [µM] | TGI [2] [µM] | GI50 [3] [µM] | TGI [3] [µM] | GI50 [4] [µM] | TGI [4] [µM] | GI50 [5] [µM] | TGI [5] [µM] | GI50 [6] [µM] | TGI [6] [µM] | GI50 [7] [µM] | TGI [7] [µM] | GI50 [8] [µM] | TGI [8] [µM] | GI50 [9] [µM] | TGI [9] [µM] | GI50 [10] [µM] | TGI [10] [µM]
1 | NS(=O)(=O)c1ccc(C2C3=C(CCCC3=O)OC3=C2C(=O)c2ccccc2C3=O)cc1 (configuration not stated) | 0.244 | 0.724 | 0.74 | 1.99 | 1.64 | 3.02 | 1.49 | 2.91 | 0.604 | 2.38 | 1.42 | 3.53 | 1.78 | 3.17 | 0.847 | 2.48 | 0.318 | 1.05 | 0.348 | 1.29
2 | COc1cc2c(c(OC)c1OC)-c1ccc(NNC(=S)N(Cc3cccc(C[N+](Cc4cccc(CNC56CC7CC(CC(C7)C5)C6)c4)(Cc4cccc(CNC56CC7CC(CC(C7)C5)C6)c4)Cc4cccc(CN(C(=S)NNc5ccc6c(cc5=O)[C@@H](NC(C)=O)CCc5cc(OC)c(OC)c(OC)c5-6)C56CC7CC(CC(C7)C5)C6)c4)c3)C34CC5CC(CC(C5)C3)C4)c(=O)cc1[C@@H](NC(C)=O)CC2 (some centres not stated) | 1.66 | 6.53 | 2.46 | 7.1 | 1.3 | 5.28 | 2.14 | 7.43 | 0.861 | 2.76 | 1.61 | 6 | 3.66 | 8.34 | 0.897 | 4.08 |  |  | 0.683 | 1.52
3 | c1cc(C2CCCCC2)ccc1OCCCCCCN1CCNCC1 | 1.82 | 3.57 | 1.88 | 3.42 | 2.31 | 5.31 |  |  | 1.82 | 3.71 | 1.92 | 3.65 | 1.78 | 3.24 | 1.55 | 5.23 | 1.63 | 3.17 | 1.96 | 3.55
4 | Cc1[nH]c(C(=O)Nc2ccc(C(=O)N3CCNCC3)cc2OC(C)C)c(Cl)c1Cl | 2.19 | 4.62 | 2.06 | 4.06 | 1.63 | 3.18 | 1.81 | 4.65 | 1.97 | 3.79 |  |  | 1.8 | 3.32 | 1.62 | 6.07 | 1.77 | 3.46 |  | 
5 | COc1ccc(C2=CC(c3cc(OC)c(OC)c(OC)c3)NC(=O)N2)cc1OC (configuration not stated) | 2.13 | 5.05 | 1.9 | 4.45 | 4.65 | 15.6 | 3.99 | 19.8 | 4.96 | 24.3 | 4.74 | > 100 | 4.48 | 41.2 | 12.5 | > 100 | 3.82 | 14.1 | 2.65 | 6.69
6 | C=C1C(=O)O[C@H]2[C@H]1CC/C(CNS(=O)(=O)c1ccc3ccccc3c1)=C\CC[C@@]1(C)O[C@@H]21 | 0.805 | 2.12 | 1.34 | 3.56 | 1.62 | 3.22 | 12.5 | 29.6 | 2.13 | 5.45 | 10.9 | 25 |  |  | 1.89 | 6.34 | 8.29 | 21.1 | 1.16 | 2.69
7 | CCOCC(=O)N[C@H]1CCc2cc(OC)c(OC)c(OC)c2-c2ccc(SC)c(=O)cc21 |  | < 0.0658 |  | 0.0582 |  | > 88 |  | > 100 |  |  |  | > 100 |  | > 100 |  | > 100 |  | > 76.8 |  | < 0.01
8 | C=C1C(=O)O[C@H]2[C@H]1CC/C(CNC(=O)/C=C/c1cccc(OC)c1)=C\CC[C@@]1(C)O[C@@H]21 | 1.1 | 2.45 | 1.19 | 2.49 | 1.54 | 3.58 | 3.17 | 14.8 | 1.47 | 3.31 | 5.11 | 20.3 | 1.15 | 2.5 | 1.03 | 3.38 | 1.58 | 3.11 | 1.34 | 2.85
9 | Cc1ccc2c[c]1[Hg][CH2]COS2(=O)=O |  |  | 18.8 | 32.8 | 18.1 | 32 | 71.7 | > 100 | 21.4 | 38.4 | > 100 | > 100 | 17.8 | 31.7 | 19.5 | 38.3 | 17.5 | 31.3 | 18.8 | 32.8
